In patent publication US20040157793A1, “Modified nucleosides as antiviral agents” (priority 2002, published 2004):
Where two headings read alike, the source gives them in different places.

Columns and labels:
[1] = system: HBV (3TC-resistant virus: rtV204) in HepAD79 cells; test: microbe, parasite or virus in culture; type: cell-based; conditions: for HepAD79 log10 inhibition at 10 μM: HBV DNA in supernatant
Procedure: (§1) HepAD38 and HepAD79 cells were seeded at 5×10^4 cells/well in a 96-well plate in seeding medium (DMEM/F12+10% FBS, 50 μg/ml penicillin, 50 μg/ml streptomycin, 100 μg/ml kanamycin, 400 μg/ml G418, and 0.3 μg/ml tetracycline) and incubated for 2 days at 37° C. in a 5% CO2, humidified atmosphere. The seeding media was removed, and cells were washed 3 times with PBS. Cells were then incubated with 200 μL assay medium (DMEM/F12+10% FBS+P/S/K) containing either (i) no compound, (ii) test compound, or (iii) control drugs at 10 μM. After an additional 5-day (HepAD38) or 13-day incubation (HepAD79, with renewal of the culture media at day 7), the cell supernatant was collected and stored at −70° C. until HBV DNA was quantified.
(§2) HBV DNA was extracted from supernatant using QiaAmp DNA blood Mini kit (Qiagen) and nucleic acids eluted in 200 μl Viral DNA was detected by quantitative PCR (Q-PCR). The TaqMan probe and primers were designed using the Primer Express software (Applied Biosystems) and cover highly conserved sequences complementary to the DNA sequences present in HBsAg. A total of 5 μl DNA was amplified using reagents and conditions as described by the manufacturer (Applied Biosystems).
Subsequently, the time course of viral induction in HepAD79 cells over a 13-day incubation period was investigated.
Therefore, the DNA extracted from the cell supernatant was also amplified by Q-PCR for the presence of cellular DNA (the rRNA gene).

[2] = system: HepG2 cells (mitochondrial COXII DNA); conditions: for Average ΔCt ± s.d. MitCoxII / Average ΔCt ± s.d. rDNA / Average ΔΔCt ± s.d. MitCOXII-rDNA / Fold difference in COXII DNA levels normalized for rDNA (range) relative to control: HepG2, 14-day treatment
[3] = system: HBV (wild-type virus: rtM204) in HepAD38 cells; test: Suppression of HBV production in HepAD38 cells, viral DNA in supernatant by Q-PCR; type: cell-based; conditions: for HepAD38 log10 inhibition at 10 μM / EC90: HepAD38 cells, 5-day incubation; for HepAD38 log10 inhibition at 10 μM: HBV DNA in supernatant; for EC90: concentration reducing viral load by 90%, read-out: HepAD38 EC90
Text: The HepAD38 (wild-type virus: rtM204) and HepAD79 (3TC-resistant virus: rtV204) (Stuyver L. J. et al. 2001, Hepatol., 33:751-757) cell lines replicate HBV under conditions that can be regulated with tetracycline (King R. W. et al. 2000, Methods in Molecular Medicine, Vol 24: Antiviral Methods and Protocols, 43-50 (eds: D. Kinchington & R. F. Schinazi), Humana Press Inc, Totowa, N.J.); Ladner, et al. 1997, Antimicrob. Agents Chemother., 41:1715-1720; Ladner S. K., et al. 1998a. Antivir. Chem. Chemother., 9:65-72; Ladner S. K., et al. 1998b. Antimicrob. Agents Chemother., 42:2128-31). In the presence of this drug, the cell supernatant is virtually free of viral DNA, but upon the removal of tetracycline from the culture medium, these cells secrete virus-like particle into the supernatant.
as §1
as §2, with “Biosystems). […]” for “Biosystems).”

HepG2 cells = test: Cell growth of HepG2 cells during 14-day treatment; type: cell-based, human; conditions: HepG2, up to 100 μM, 14 days
Procedure: In addition, these compounds were also tested in the HepG2 cell line (14-day treatment, 100 μM) for their ability to reduce mitochondrial DNA levels (using a newly designed normalized Q-PCR protocol as described in Stuyver, L. J., et al. 2002, Antimicrob. Agents Chemother., 46:3854-3860) or lactic acid production.

[4] = HepAD79 cells, 13-day incubation
[5] = HepAD79 cells, 13-day incubation, read-out: HepAD79 EC90

Compound	HepAD79 log10 inhibition at 10 μM [1, 4] [log10]	EC90 [1, 5] [nM]	activity against the mutant virus (in words) ([1]; rtV204 mutant virus)	Average ΔCt ± s.d. MitCoxII ([2]; 10 μM)	Average ΔCt ± s.d. rDNA ([2]; 10 μM)	Average ΔΔCt ± s.d. MitCOXII-rDNA ([2]; 10 μM)	Fold difference in COXII DNA levels normalized for rDNA (range) relative to control ([2]; 10 μM)	Average ΔCt ± s.d. MitCoxII ([2]; 100 μM)	Average ΔCt ± s.d. rDNA ([2]; 100 μM)	Average ΔΔCt ± s.d. MitCOXII-rDNA ([2]; 100 μM)	Fold difference in COXII DNA levels normalized for rDNA (range) relative to control ([2]; 100 μM)	HepAD38 log10 inhibition at 10 μM [3] [log10]	EC90 ([3]; unit printed in text only) [nM]	inhibition of wild type HBV (in words) ([3]; wild type HBV)	EC90 ([1]; Hepatitis B virus, 312 h, read-out: HepAD79 EC90, HepAD79 cells, 13-day incubation) [nM]	EC90 ([3]; Hepatitis B virus, 120 h) [nM]	FI EC90 AD79/EC90 AD38 ([1]; fold increase, EC90 HepAD79 over EC90 HepAD38)	effect on mitochondrial DNA levels (in words) ([2]; HepG2, up to 100 μM, 14 days)	effect on cell growth (in words) (HepG2 cells)
Nc1nc(=O)n([C@H]2O[C@@H](CO)C=C2F)cc1F [L-2′F-D4FC]	0.23	> 10000	completely inactive	0.05 ± 0.07	−0.23 ± 0.20	0.28 ± 0.17	0.82 (0.73-0.92)	0.83 ± 0.17	0.85 ± 0.51	−0.02 ± 0.64	1.01 (0.65-1.58)	1.91 ± 0.13	630	potent inhibitors	–	–	–	–	–
Nc1ccn([C@@H]2CS[C@H](CO)O2)c(=O)n1 [3TC, (−)-enantiomer of 2-hydroxymethyl-5-(cytosin-1-yl)-1,3-oxathiolane]	0.67 ± 0.03	–	–	–	–	–	–	–	–	–	–	1.97 ± 0.28	–	–	> 10000	50	–	–	–
Nc1ccn([C@@H]2C=C[C@H](CO)O2)c(=O)n1 [L-d4C]	1.54 ± 0.38	960	–	2.72 ± 0.37	3.96 ± 0.87	−1.24 ± 0.50	2.36 (1.67-3.35)	6.82 ± 0.33	10.14 ± 0.77	−3.32 ± 0.75	9.99 (5.92-16.85)	2.79 ± 0.08	60 ± 20	–	–	–	16	did not specifically affect the mitochondrial DNA levels	reduced the cell growth significantly
Nc1nc(=O)n([C@@H]2CC[C@H](CO)O2)cc1F [L-FddC]	0.02	> 10000	–	–	–	–	–	–	–	–	–	2.03	310	–	–	–	–	–	–
Nc1nc(=O)n(C2CSC(CO)O2)cc1F (single isomer, unassigned; (-)) [(−)-FTC, (−)-enantiomer of 2-hydroxymethyl-5-(5-fluorocytosin-1-yl)-1,3-oxathiolane]	0.28	> 10000	–	–	–	–	–	–	–	–	–	1.59 ± 0.14	1160 ± 660	–	–	–	–	–	–
